tested on: NCI-H929 cells; assay: Anti proliferative activity in NCI-H929 cell line by Cell Titer Glo assay; format: cell-based; conditions: Homo sapiens, 72 h, 3 days compound incubation, CellTiter Glo, read-out: Anti-proliferative activity IC50 group (NCI-H929 cells)
Experimental: Determination of Anti Proliferative Activity of Compounds in NCI-H929 and NCI-H838 Cell Lines by Cell Titer Glo® (promega) assay:
NCI-H929 (ATCC CRL-9068) or NCI-H838 (ATCC CRL-5844) cells were seeded in 96 well plate flat black clear bottom plates (Corning, Cat. No 3904) using complete RPMI-1640 media. Next day, compounds listed in the present invention were added to cells from 10 mM stocks made in DMSO (Sigma Cat no. D2650). Each concentration of compound was tested in triplicate with DMSO concentration at a final percentage not exceeding 0.3 in the cells. After the compound incubation (3 days for H929 and 8 days for H838) assay was terminated using 50 μl of CellTiter Glo® reagent (Promega, Cat. no G7572). CellTiter Glo® Luminescent reagent determines the number of viable cells based on quantitation of ATP present which is an indicator of cell number and metabolic activity. Luminescence readings were taken in Victor-3 instrument. Percent inhibition of proliferation was calculated using formula, % inhibition=100−(luminescence value of test/luminescence value of DMSO control)*100. DMSO control (0%)=Cells in complete media with DMSO; blank=Media alone containing DMSO. IC50 was calculated using graph pad prism software.
Herein group “A” refers to IC50 value lower than 1 μM, “B” refers to IC50 value between 1-10 μM (both inclusive) and “C” refers to IC50 value higher than 10 μM or less than 50% activity at 10 μM.

Row | IC50 [µM] | Compound
1 | > 10 | Cc1ncsc1-c1ccc(CNC(=O)[C@@H]2C[C@@H](O)CN2C(=O)[C@@H](NC(=O)COCCNC(=O)C2CCN(c3cc(-c4ccccc4O)nnc3N)CC2)C(C)(C)C)cc1 [Compound 1, 1-(3-amino-6-(2-hydroxyphenyl)pyridazin-4-yl)-N-(2-(2-(((S)-1-((2S,4R)-4-hydroxy-2-((4-(4-methylthiazol-5-yl)benzyl)carbamoyl)pyrrolidin-1-yl)-3,3-dimethyl-1-oxobutan-2-yl)amino)-2-oxoethoxy)ethyl)piperidine-4-carboxamide]
2 | > 10 | Cc1ncsc1-c1ccc(CNC(=O)[C@@H]2C[C@@H](O)CN2C(=O)[C@@H](NC(=O)COCCOCCNC(=O)C2CCN(c3cc(-c4ccccc4O)nnc3N)CC2)C(C)(C)C)cc1 [Compound 2]
3 | > 10 | Cc1ncsc1-c1ccc(CNC(=O)[C@@H]2C[C@@H](O)CN2C(=O)[C@@H](NC(=O)COCCOCCOCCOCCNC(=O)C2CCN(c3cc(-c4ccccc4O)nnc3N)CC2)C(C)(C)C)cc1 [Compound 3]
4 | > 10 | Cc1ncsc1-c1ccc(CNC(=O)[C@@H]2C[C@@H](O)CN2C(=O)[C@@H](NC(=O)COCCOCCOCCNC(=O)C2CCN(c3cc(-c4ccccc4O)nnc3N)CC2)C(C)(C)C)cc1 [Compound 4]
5 | > 10 | Cc1ncsc1-c1ccc(CNC(=O)[C@@H]2C[C@@H](O)CN2C(=O)[C@@H](NC(=O)C2CCN(c3cc(-c4ccccc4O)nnc3N)CC2)C(C)(C)C)cc1 [Compound 5]
6 | > 10 | Nc1nnc(-c2ccccc2O)cc1N1CCC(C(=O)NCCOCC(=O)Nc2cccc3c2C(=O)N(C2CCC(=O)NC2=O)C3=O)CC1 (stereo not shown) [Compound 6]
7 | > 10 | Nc1nnc(-c2ccccc2O)cc1N1CCC(C(=O)NCCOCCOCCOCCOCC(=O)Nc2cccc3c2C(=O)N(C2CCC(=O)NC2=O)C3=O)CC1 (stereo not shown) [Compound 8]
8 | > 10 | Nc1nnc(-c2ccccc2O)cc1N1CCC(C(=O)NCCOCCOCC(=O)Nc2cccc3c2C(=O)N(C2CCC(=O)NC2=O)C3=O)CC1 (stereo not shown) [Compound 9]
9 | > 10 | Nc1nnc(-c2ccccc2O)cc1N1CCC(C(=O)NCCOCCOCCOCC(=O)Nc2cccc3c2CN(C2CCC(=O)NC2=O)C3=O)CC1 (stereo not shown) [Compound 12]
10 | > 10 | Cc1ncsc1-c1ccc(CNC(=O)[C@@H]2C[C@@H](O)CN2C(=O)[C@@H](NC(=O)COCC(=O)NC2CCN(c3cc(-c4ccccc4O)nnc3N)CC2)C(C)(C)C)cc1 [Compound 14]
11 | > 10 | Nc1nnc(-c2ccccc2O)cc1N1CCC(NC(=O)COCC(=O)Nc2cccc3c2CN(C2CCC(=O)NC2=O)C3=O)CC1 (stereo not shown) [Compound 15]
12 | > 10 | Nc1nnc(-c2ccccc2O)cc1N1CCC(NC(=O)COCC(=O)Nc2cccc3c2C(=O)N(C2CCC(=O)NC2=O)C3=O)CC1 (stereo not shown) [Compound 16]
13 | > 10 | Nc1nnc(-c2ccccc2O)cc1N1CCC(NC(=O)CCCCCCC(=O)Nc2cccc3c2CN(C2CCC(=O)NC2=O)C3=O)CC1 (stereo not shown) [Compound 17]
14 | > 10 | Nc1nnc(-c2ccccc2O)cc1N1CCC(NC(=O)CCCCCCCCCC(=O)Nc2cccc3c2CN(C2CCC(=O)NC2=O)C3=O)CC1 (stereo not shown) [Compound 18]
15 | > 10 | Nc1nnc(-c2ccccc2O)cc1N1CCC(NC(=O)CCCCCCC(=O)Nc2cccc3c2C(=O)N(C2CCC(=O)NC2=O)C3=O)CC1 (stereo not shown) [Compound 19]
16 | > 10 | Cc1ncsc1-c1ccc(CNC(=O)[C@@H]2C[C@@H](O)CN2C(=O)[C@@H](NC(=O)CCCC(=O)NC2CCN(c3cc(-c4ccccc4O)nnc3N)CC2)C(C)(C)C)cc1 [Compound 20]
17 | > 10 | Cc1ncsc1-c1ccc(CNC(=O)[C@@H]2C[C@@H](O)CN2C(=O)[C@@H](NC(=O)CCCCCCC(=O)NC2CCN(c3cc(-c4ccccc4O)nnc3N)CC2)C(C)(C)C)cc1 [Compound 21]
18 | > 10 | Cc1ncsc1-c1ccc(CNC(=O)[C@H]2C[C@H](O)CN2C(=O)[C@H](NC(=O)CCCCCCCCCC(=O)NC2CCN(c3cc(-c4ccccc4O)nnc3N)CC2)C(C)(C)C)cc1 [Compound 22]
19 | 1 to 10 | Cc1ncsc1-c1ccc([C@H](C)NC(=O)[C@@H]2C[C@@H](O)CN2C(=O)[C@@H](NC(=O)CCCCCCC(=O)NC2CCN(c3cc(-c4ccccc4O)nnc3N)CC2)C(C)(C)C)cc1 [Compound 23]

Row | IC50 [µM] | Compound
20 | > 10 | Nc1nnc(-c2ccccc2O)cc1N1CCN(C(=O)CCCC(=O)Nc2cccc3c2CN(C2CCC(=O)NC2=O)C3=O)CC1 (stereo not shown) [Compound 25]
21 | > 10 | Nc1nnc(-c2ccccc2O)cc1N1CCN(C(=O)CCCCCCC(=O)Nc2cccc3c2CN(C2CCC(=O)NC2=O)C3=O)CC1 (stereo not shown) [Compound 26]
22 | > 10 | Nc1nnc(-c2ccccc2O)cc1N1CCN(C(=O)CCCCCCCCCC(=O)Nc2cccc3c2CN(C2CCC(=O)NC2=O)C3=O)CC1 (stereo not shown) [Compound 27]
23 | > 10 | Nc1nnc(-c2ccccc2O)cc1N1CCN(C(=O)COCC(=O)Nc2cccc3c2CN(C2CCC(=O)NC2=O)C3=O)CC1 (stereo not shown) [Compound 28]
24 | > 10 | Nc1nnc(-c2ccccc2O)cc1N1CCN(C(=O)COCC(=O)Nc2cccc3c2C(=O)N(C2CCC(=O)NC2=O)C3=O)CC1 (stereo not shown) [Compound 29]
25 | > 10 | Nc1nnc(-c2ccccc2O)cc1N1CCN(C(=O)CCCCCCC(=O)Nc2cccc3c2C(=O)N(C2CCC(=O)NC2=O)C3=O)CC1 (stereo not shown) [Compound 30]
26 | > 10 | Cc1ncsc1-c1ccc(CNC(=O)[C@@H]2C[C@@H](O)CN2C(=O)[C@@H](NC(=O)COCC(=O)N2CCN(c3cc(-c4ccccc4O)nnc3N)CC2)C(C)(C)C)cc1 [Compound 31]
27 | > 10 | Cc1ncsc1-c1ccc(CNC(=O)[C@@H]2C[C@@H](O)CN2C(=O)[C@@H](NC(=O)CCCC(=O)N2CCN(c3cc(-c4ccccc4O)nnc3N)CC2)C(C)(C)C)cc1 [Compound 33]
28 | > 10 | Cc1ncsc1-c1ccc(CNC(=O)[C@@H]2C[C@@H](O)CN2C(=O)[C@@H](NC(=O)CCCCCCC(=O)N2CCN(c3cc(-c4ccccc4O)nnc3N)CC2)C(C)(C)C)cc1 [Compound 34]
29 | 1 to 10 | Cc1ncsc1-c1ccc(CNC(=O)[C@@H]2C[C@@H](O)CN2C(=O)[C@@H](NC(=O)CCCCCCCCCC(=O)N2CCN(c3cc(-c4ccccc4O)nnc3N)CC2)C(C)(C)C)cc1 [Compound 35]
30 | > 10 | Nc1nnc(-c2ccccc2O)cc1N1CCN(CC(=O)Nc2cccc3c2CN(C2CCC(=O)NC2=O)C3=O)CC1 (stereo not shown) [Compound 42]
31 | > 10 | COc1ccccc1-c1cc(N2CCN(CC(=O)N[C@H](C(=O)N3C[C@H](O)C[C@H]3C(=O)N[C@@H](C)c3ccc(-c4scnc4C)cc3)C(C)(C)C)CC2)c(N)nn1 [Compound 45]
32 | > 10 | Cc1ncsc1-c1ccc([C@H](C)NC(=O)[C@@H]2C[C@@H](O)CN2C(=O)[C@@H](NC(=O)CN2CCN(c3cc(-c4ccccc4)nnc3N)CC2)C(C)(C)C)cc1 [Compound 46]
33 | 1 to 10 | Cc1ncsc1-c1ccc([C@H](C)NC(=O)[C@@H]2C[C@@H](O)CN2C(=O)[C@@H](NCC(=O)N2CCN(c3cc(-c4ccccc4O)nnc3N)CC2)C(C)(C)C)cc1 [Compound 49, (2S,4R)-1-((S)-2-((2-(4-(3-amino-6-(2-hydroxyphenyl)pyridazin-4-yl)piperazin-1-yl)-2-oxoethyl)amino)-3,3-dimethylbutanoyl)-4-hydroxy-N—((S)-1-(4-(4-methylthiazol-5-yl)phenyl)ethyl)pyrrolidine-2-carboxamide]
34 | > 10 | Cc1ncsc1-c1ccc([C@H](C)NC(=O)[C@@H]2C[C@@H](O)CN2C(=O)[C@@H](NC(=O)CN2CCN(c3cc(Cl)nnc3N)CC2)C(C)(C)C)cc1 [Compound 50, (2S,4R)-1-((S)-2-(2-(4-(3-amino-6-chloropyridazin-4-yl)piperazin-1-yl)acetamido)-3,3-dimethylbutanoyl)-4-hydroxy-N—((S)-1-(4-(4-methylthiazol-5-yl)phenyl)ethyl)pyrrolidine-2-carboxamide]
35 | > 10 | Cc1ncsc1-c1ccc(CNC(=O)[C@@H]2C[C@@H](O)CN2C(=O)[C@@H](NC(=O)COCCN2CCN(c3cc(-c4ccccc4O)nnc3N)CC2)C(C)(C)C)cc1 [Compound 53, (2S,4R)-1-((S)-2-(2-(2-(4-(3-amino-6-(2-hydroxyphenyl)pyridazin-4-yl)piperazin-1-yl)ethoxy)acetamido)-3,3-dimethylbutanoyl)-4-hydroxy-N-(4-(4-methylthiazol-5-yl)benzyl)pyrrolidine-2-carboxamide]
36 | > 10 | Cc1ncsc1-c1ccc([C@H](C)NC(=O)[C@@H]2C[C@@H](O)CN2C(=O)[C@@H](NC(=O)CN2CCN(c3cc(-c4ccccc4O)nnc3O)CC2)C(C)(C)C)cc1 [Compound 54, (2S,4R)-4-hydroxy-1-((S)-2-(2-(4-(3-hydroxy-6-(2-hydroxyphenyl)pyridazin-4-yl)piperazin-1-yl)acetamido)-3,3-dimethylbutanoyl)-N—((S)-1-(4-(4-methylthiazol-5-yl)phenyl)ethyl)pyrrolidine-2-carboxamide]
37 | > 10 | Cc1ncsc1-c1ccc([C@H](C)NC(=O)[C@@H]2C[C@@H](O)CN2C(=O)[C@@H](NC(=O)CN2CCN(c3ccnnc3N)CC2)C(C)(C)C)cc1 [Compound 67, (2S,4R)-1-((S)-2-(2-(4-(3-aminopyridazin-4-yl)piperazin-1-yl)acetamido)-3,3-dimethylbutanoyl)-4-hydroxy-N—((S)-1-(4-(4-methylthiazol-5-yl)phenyl)ethyl)pyrrolidine-2-carboxamide]

From patent publication US12371426B2, “Pyridazine derivatives as SMARCA2/4 degraders” (Aurigene Discovery Technologies Limited, priority 2018, dated 2025)
